Assay results reported in article PMC3578427 (Journal of medicinal chemistry, 2011).
Where a name gives a salt, the structure may show the parent alone.

Experiments:
[1] = Water solubility; type: physicochemical
[2] = target: T1, hA2B AR (Homo sapiens, UniProt P29275)
T1 sequence (P29275 1-332): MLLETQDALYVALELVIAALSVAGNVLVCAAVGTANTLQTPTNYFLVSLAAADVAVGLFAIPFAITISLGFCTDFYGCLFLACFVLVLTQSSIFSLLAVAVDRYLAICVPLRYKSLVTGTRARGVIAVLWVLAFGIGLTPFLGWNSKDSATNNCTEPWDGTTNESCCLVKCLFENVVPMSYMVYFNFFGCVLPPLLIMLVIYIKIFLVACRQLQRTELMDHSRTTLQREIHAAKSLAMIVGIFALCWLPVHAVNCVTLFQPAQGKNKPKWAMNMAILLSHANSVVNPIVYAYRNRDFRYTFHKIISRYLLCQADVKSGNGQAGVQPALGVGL

[3] = system: human (h) A2B AR; conditions: cited from earlier work
[4] = target: T2, hA3 AR (Homo sapiens, UniProt P0DMS8)
T2 sequence (P0DMS8 1-318): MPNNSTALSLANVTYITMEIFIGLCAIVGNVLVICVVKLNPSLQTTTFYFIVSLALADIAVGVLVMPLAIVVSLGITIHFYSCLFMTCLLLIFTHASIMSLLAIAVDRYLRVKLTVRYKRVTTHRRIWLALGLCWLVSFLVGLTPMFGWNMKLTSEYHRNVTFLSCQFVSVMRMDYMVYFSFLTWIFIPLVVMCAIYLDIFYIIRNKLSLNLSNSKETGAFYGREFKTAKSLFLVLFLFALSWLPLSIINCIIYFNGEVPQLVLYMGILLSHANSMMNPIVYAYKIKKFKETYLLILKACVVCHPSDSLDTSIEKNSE

| Compound | activity at hA2B AR in the functional assay [2] | also measured |
| --- | --- | --- |
| NCCOCCOCCNc1nc(N)n2nc(-c3ccco3)nc2n1.O=C(O)C(F)(F)F [Compound 20, 7-Amino-5-[(8-amino)triethylenoxy]-amino-2(2-furyl) 1,2,4-triazolo [1,5-a] 1,3,5-triazine trifluoroacetate] |  | solubility [1]: ≥ 10 mM |
| Nc1nc(N)n2nc(-c3ccco3)nc2n1 [Compound 41, 5,7-diamino-2(2-furyl) 1,2,4-triazolo [1,5-a] 1,3,5-triazine] | poorly active |  |
| Nc1nc(NCCc2ccc(O)cc2)nc2nc(-c3ccco3)nn12 [ZM241385] |  | affinity at hA2B AR [3]: 28 nM |
| CC(C)(C)OC(=O)NCC1CCC(CNc2nc(N)n3nc(-c4ccco4)nc3n2)CC1 (stereo not drawn) [Compound 11, 7-Amino-5-[(4-tert-butyloxycarbonylaminomethyl)cyclohexylmethyl]-amino-2(2-furyl) 1,2,4-triazolo [1,5-a] 1,3,5-triazine] | poorly active |  |
| CC(C)(C)OC(=O)NCCNc1nc(N)n2nc(-c3ccco3)nc2n1 [Compound 10, 7-Amino-5-[(2-tert-butyloxycarbonylamino)ethyl]-amino-2(2-furyl) 1,2,4-triazolo [1,5-a] 1,3,5-triazine] |  | Ki [4]: ~1000 nM |
| Nc1nc(NC(=O)c2ccccc2)n2nc(-c3ccco3)nc2n1 [Compound 43, 5-amino-7-phenylcarbonylamino-2(2-furyl) 1,2,4-triazolo [1,5-a] 1,3,5-triazine trifluoroacetate] | poorly active |  |
